The values below come from paper PMC10782944 (Science immunology, 2023).

The subject of one test is 10LH. Briefly: SPR of peptide-loaded HLA-A*24:02 flowed over 10LH-biotin on a streptavidin chip. In kind it is binding. The settings on record: peptide loaded on HLA-A*24:02.
The next test deals with HLA-B*08:01 (Homo sapiens, UniProt P01889, A93T/A95T/D138N/E176V/E187T/K202T/Q94N/R180D/S35A/V36M/Y33D/Y91F). The test can be described thus: pHLA complex formation of PHOX2B peptide with HLA-B*08:01. To be noted: HLA-B*08:01, despite NetMHCpan 4.1 prediction.

On to LYLPVRVLI [ATG2A], for which the “dissociation rate (qualitative)” value in the test with 10LH is given as “slow dissociation rate”.

For the sequence QYNPIRTTF [PHOX2B], the “formation of stable complexes with the HLA” value at HLA-B*08:01 is listed as “did not form stable complexes”.
